34 molecules from patent publication US20080261994A1, “CYCLOPROPANE COMPOUNDS AND PHARMACEUTICAL USE THEREOF” (Japan Tobacco Inc., priority 2003, published 2008) can be followed below.

Holding throughout (format): biochemical
The target of test [1] is T1, aggrecanase-1 (Homo sapiens, UniProt O75173).
T1 sequence (O75173 213-837): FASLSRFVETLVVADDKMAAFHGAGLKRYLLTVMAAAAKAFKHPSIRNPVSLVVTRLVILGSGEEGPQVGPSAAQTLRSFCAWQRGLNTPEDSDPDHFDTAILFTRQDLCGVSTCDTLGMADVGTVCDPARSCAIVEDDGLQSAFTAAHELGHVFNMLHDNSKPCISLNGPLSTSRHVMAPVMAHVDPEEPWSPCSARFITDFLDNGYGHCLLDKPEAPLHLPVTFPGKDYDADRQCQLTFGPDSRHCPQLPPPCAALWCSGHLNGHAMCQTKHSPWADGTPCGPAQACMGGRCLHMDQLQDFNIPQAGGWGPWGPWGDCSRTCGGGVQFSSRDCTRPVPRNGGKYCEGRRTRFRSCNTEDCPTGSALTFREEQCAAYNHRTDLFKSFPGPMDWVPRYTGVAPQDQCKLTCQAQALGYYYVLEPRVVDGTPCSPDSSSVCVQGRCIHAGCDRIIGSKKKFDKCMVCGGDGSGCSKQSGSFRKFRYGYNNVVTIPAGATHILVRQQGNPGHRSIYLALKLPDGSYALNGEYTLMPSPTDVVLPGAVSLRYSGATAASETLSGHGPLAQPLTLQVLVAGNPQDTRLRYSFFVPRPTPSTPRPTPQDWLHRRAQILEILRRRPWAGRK
Nature of the test: Aggrecanase-1 inhibitory action (Particle Assay, GAG release from aggrecan-containing polyacrylamide particles). To be noted: aggrecanase-1 inhibitory action; read-out: IC50 AG1 (Experimental Example 1). The method, boiled down:
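Enzyme and compound incubated with aggrecan-containing polyacrylamide particles in Tris-HCl buffer at 37° C for 15 h. Released GAG in supernatant measured with 1,9-dimethylmethylene blue at 595 nm against chondroitin sulfate standard; % inhibition from enzyme-free and inhibitor-free wells, reported as TC50 (μM).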

In test [2] the target is T2, MMP-1 (Homo sapiens, UniProt P03956).
T2 sequence (P03956 100-469): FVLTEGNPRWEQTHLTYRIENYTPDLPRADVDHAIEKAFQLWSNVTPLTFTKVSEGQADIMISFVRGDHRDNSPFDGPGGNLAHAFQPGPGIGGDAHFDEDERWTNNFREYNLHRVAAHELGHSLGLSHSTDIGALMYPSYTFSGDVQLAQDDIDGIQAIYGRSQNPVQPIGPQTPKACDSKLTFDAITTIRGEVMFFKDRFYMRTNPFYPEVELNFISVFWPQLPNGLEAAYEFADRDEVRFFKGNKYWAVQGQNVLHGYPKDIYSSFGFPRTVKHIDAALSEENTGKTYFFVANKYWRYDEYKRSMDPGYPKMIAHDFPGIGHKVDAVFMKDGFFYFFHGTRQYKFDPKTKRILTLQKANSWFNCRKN
Nature of the test: MMP-1 inhibitory action (Type I collagen Activity Measurement kit, FITC-labeled collagen type I). To be noted: MMP-1 inhibitory action, FITC-labeled collagen type I, 37° C. for 3 hr; read-out: IC50 MMP1 (Experimental Example 2).

Test [3] concerns the target T3, Recombinant Human MMP-13 (Homo sapiens, UniProt P45452).
T3 construct: purchased R&D systems 511-MM
Nature of the test: MMP-13 inhibitory activity (MMP-13 specific fluorescent substrate with quencher). To be noted: Recombinant Human MMP-13, fluorescent substrate, 25° C. for 1 h; read-out: IC50 MMP13 (Experimental Example 3). The method, boiled down: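 Recombinant human MMP-13 with test compound, reaction started with quenched fluorogenic peptide 7-MCA-Pro-CHA-Gly-NVal-His-Ala-DPA in Tris-HCl buffer, 1 h at 25 °C, stopped with acetic acid. Fluorescence at Ex 325/Em 405 nm; % inhibition versus enzyme-free and inhibitor-free wells, reported as IC50 (μM).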

As for `O=C1O[C@@H]([C@H]2C[C@@]2(NS(=O)(=O)c2ccc(-c3ccc(Cl)cc3)s2)C(=O)O)CN1Cc1ccccc1` [Example 2-139], the IC50 (commonly the concentration at which inhibition is half-maximal) in test [1] is no less than 1 µM; in test [2] it was no less than 10 µM; in test [3], no less than 1 µM.

Regarding `O=C(O)[C@]1(NS(=O)(=O)/C=C/c2ccccc2)C[C@@H]1c1ccccc1` [Example 2-140], the values for the IC50 in test [1], in test [2] and in test [3] were no less than 10 µM, no less than 10 µM and no less than 1 µM, respectively.

For `O=C(O)[C@]1(NS(=O)(=O)c2ccc3c(c2)Cc2cc(F)ccc2-3)C[C@@H]1c1ccccc1` [Example 2-141], the IC50 in test [1] is less than 1 µM; in test [2], no less than 1 µM; in test [3] it was less than 0.1 µM.

As to `O=C(O)[C@]1(NS(=O)(=O)c2ccc3c(c2)Cc2cc(Cl)ccc2-3)C[C@@H]1c1ccccc1` [Example 2-142], the IC50 in test [1] is less than 0.1 µM; in test [2], no less than 1 µM; in test [3] it was less than 1 µM.

As to `O=C(O)C1(NS(=O)(=O)N2CCC(Oc3ccccc3)CC2)CC1c1ccccc1` (stereo not drawn) [Example 2-143], the half-inhibitory concentration (IC50) in test [1] is no less than 10 µM; in test [2] it was no less than 10 µM; in test [3] it was no less than 1 µM.

As to `O=C(O)C1(NS(=O)(=O)N2CCC(Oc3ccc(C(F)(F)F)cc3)CC2)CC1c1ccccc1` (stereo not drawn) [Example 2-144], the IC50 in test [1] was no less than 10 µM; in test [2] it was no less than 10 µM; in test [3], no less than 1 µM.

With `O=C(O)C1(NS(=O)(=O)N2CCC(Oc3ccc(F)cc3)CC2)CC1c1ccccc1` (stereo not drawn) [Example 2-145], the half-maximal inhibitory concentration (IC50) in test [1] was no less than 10 µM; in test [2] it was no less than 10 µM; in test [3] it was no less than 1 µM.

On to `CCC1(c2ccccc2)CC1(NS(=O)(=O)c1ccc2c(c1)Cc1cc(F)ccc1-2)C(=O)O` (stereo not drawn) [Example 2-146], for which the IC50 was less than 1 µM in test [1], no less than 10 µM in test [2] and less than 1 µM in test [3].

For `CC1(C)CC1(NS(=O)(=O)c1ccc(-c2ccc(Cl)cc2)s1)C(=O)O` (stereo not drawn) [Example 2-147], the IC50 in test [1] is no less than 1 µM; in test [2], no less than 10 µM; in test [3], no less than 1 µM.

Consider `O=C(O)C1(NS(=O)(=O)N2CC=C(c3ccccc3)CC2)CC1c1ccccc1` (stereo not drawn) [Example 2-148], for which the values for the concentration for half-maximal inhibition (IC50) in test [1], in test [2] and in test [3] were no less than 1 µM, no less than 10 µM and less than 1 µM, respectively.

As to `O=C(O)C1(NS(=O)(=O)N2CC=C(c3ccc(Cl)cc3)CC2)CC1c1ccccc1` (stereo not drawn) [Example 2-149], the IC50 in test [1] is no less than 1 µM; in test [2] it was no less than 10 µM; in test [3] it was less than 0.1 µM.

Consider `O=C(O)[C@@]1(NS(=O)(=O)c2ccc(-c3ccc(Cl)cc3)s2)C[C@H]1c1cccc(Br)c1` [Example 2-150], for which the figures for the IC50 in test [1], in test [2] and in test [3] were less than 1 µM, no less than 1 µM and less than 1 µM, respectively.

Turning to `O=C(O)[C@]1(NS(=O)(=O)/C=C/c2ccc(Cl)cc2)C[C@@H]1c1ccccc1` [Example 2-151], the 50% inhibitory concentration (IC50) in test [1] was no less than 10 µM; in test [2] it was no less than 10 µM; in test [3] it was no less than 1 µM.

Consider `O=C(O)[C@]1(NS(=O)(=O)c2ccc(-c3cc(C(F)F)on3)cc2)C[C@@H]1c1ccccc1` [Example 2-152], for which the half-maximal inhibitory concentration (IC50) is less than 1 µM in test [1], no less than 10 µM in test [2] and less than 0.1 µM in test [3].

On to `O=C(O)[C@]1(NS(=O)(=O)/C=C/c2cccc(Cl)c2)C[C@@H]1c1ccccc1` [Example 2-153], for which the IC50 in test [1] was no less than 10 µM; in test [2], no less than 10 µM; in test [3], no less than 1 µM.

In the case of `O=C(O)[C@]1(NS(=O)(=O)c2ccc(-c3noc4c3CCCC4)s2)C[C@@H]1c1ccccc1` [Example 2-154], the 50% inhibitory concentration (IC50) in test [1] is no less than 1 µM; in test [2], no less than 10 µM; in test [3], less than 1 µM.

Regarding `O=C(O)C1(NS(=O)(=O)N2CCN(c3ncc(Br)cn3)CC2)CC1c1ccccc1` (stereo not drawn) [Example 2-155], the half-inhibitory concentration (IC50) is no less than 1 µM in test [1], no less than 10 µM in test [2] and less than 1 µM in test [3].

As for `O=C(O)C1(NS(=O)(=O)N2CCn3c(cc4cc(Cl)ccc43)C2)CC1c1ccccc1` (stereo not drawn) [Example 2-156], the IC50 was no less than 1 µM in test [1], no less than 10 µM in test [2] and no less than 1 µM in test [3].

Regarding `O=C(O)C1(NS(=O)(=O)N2CCN(c3nc4ccccc4s3)CC2)CC1c1ccccc1` (stereo not drawn) [Example 2-157], the IC50 was no less than 10 µM in test [1], no less than 10 µM in test [2] and no less than 1 µM in test [3].

As to `O=C(O)C1(NS(=O)(=O)N2CCN(Cc3ccccc3)CC2)CC1c1ccccc1` (stereo not drawn) [Example 2-158], the IC50 in test [1], in test [2] and in test [3] was no less than 10 µM throughout.

Take `O=C(c1ccc(Cl)cc1)N1CCN(S(=O)(=O)NC2(C(=O)O)CC2c2ccccc2)CC1` (stereo not drawn) [Example 2-159]: the IC50 in test [1], in test [2] and in test [3] was no less than 10 µM each time.

Consider `O=C(c1cccc(Cl)c1)N1CCN(S(=O)(=O)NC2(C(=O)O)CC2c2ccccc2)CC1` (stereo not drawn) [Example 2-160], for which the half-inhibitory concentration (IC50) in test [1], in test [2] and in test [3] was no less than 10 µM in each case.

Take `O=C(O)[C@]1(NS(=O)(=O)/C=C/c2ccc(C(F)(F)F)cc2)C[C@@H]1c1ccccc1` [Example 2-161]: the half-maximal inhibitory concentration (IC50) is no less than 10 µM in test [1], no less than 10 µM in test [2] and no less than 1 µM in test [3].

Take `O=C(O)[C@]1(NS(=O)(=O)/C=C/c2cccc(C(F)(F)F)c2)C[C@@H]1c1ccccc1` [Example 2-162]: the 50% inhibitory concentration (IC50) in test [1], in test [2] and in test [3] was no less than 10 µM throughout.

As to `O=C1CCCN1c1ccc(S(=O)(=O)N[C@@]2(C(=O)O)C[C@@H]2c2ccccc2)s1` [Example 2-163], the 50% inhibitory concentration (IC50) in test [1], in test [2] and in test [3] was no less than 10 µM throughout.

Turning to `O=C1CCCCN1c1ccc(S(=O)(=O)N[C@@]2(C(=O)O)C[C@@H]2c2ccccc2)s1` [Example 2-164], the half-inhibitory concentration (IC50) in test [1], in test [2] and in test [3] was no less than 10 µM throughout.

For the molecule `Nc1ccc(S(=O)(=O)NC2(C(=O)O)CC2c2ccccc2)s1` (stereo not drawn) [Example 2-165], the IC50 in test [1] is no less than 10 µM; in test [2], no less than 10 µM; in test [3] it was no less than 1 µM.

As for `O=C(O)[C@]1(NS(=O)(=O)c2ccc3c(c2)CN(C2CCCCC2)C3)C[C@@H]1c1ccccc1` [Example 2-166], the concentration for half-maximal inhibition (IC50) in test [1], in test [2] and in test [3] was no less than 10 µM each time.

Turning to `O=C(O)[C@@]1(NS(=O)(=O)c2ccc(-c3ccc(Cl)cc3)s2)C[C@H]1c1ccccc1Br` [Example 2-168], the half-maximal inhibitory concentration (IC50) in test [1] was less than 1 µM; in test [2] it was no less than 10 µM; in test [3], no less than 1 µM.

As for `O=C(O)[C@]1(NS(=O)(=O)c2ccc(-c3cc(C(F)(F)F)on3)s2)C[C@@H]1c1cccc(Br)c1` [Example 2-169], the IC50 in test [1] was less than 0.1 µM; in test [2] it was no less than 1 µM; in test [3] it was less than 0.1 µM.

As for `O=C(O)[C@]1(NS(=O)(=O)c2ccc(-c3ccc(Cl)cc3)s2)C[C@@H]1c1cccc([N+](=O)[O-])c1` [Example 2-170], the half-maximal inhibitory concentration (IC50) in test [1] is less than 0.1 µM; in test [2] it was no less than 10 µM; in test [3], less than 0.1 µM.

With `O=C(O)[C@]1(NS(=O)(=O)c2ccc(-c3cc(C(F)(F)F)no3)s2)C[C@@H]1c1ccccc1` [Example 2-171], the 50% inhibitory concentration (IC50) is less than 1 µM in test [1], no less than 10 µM in test [2] and less than 1 µM in test [3].

As to `CN1CC=C(c2ccc(S(=O)(=O)N[C@@]3(C(=O)O)C[C@@H]3c3ccccc3)s2)CC1` [Example 2-172], the IC50 is no less than 10 µM in test [1], no less than 10 µM in test [2] and no less than 1 µM in test [3].

`O=C(O)[C@]1(NS(=O)(=O)c2ccc(-c3ccc(Cl)cc3)s2)C[C@@H]1c1cccc(NCc2cccnc2)c1` [Example 2-173]: the concentration for half-maximal inhibition (IC50) in test [1] is less than 0.1 µM; in test [2] it was no less than 1 µM; in test [3] it was less than 0.1 µM.
